The subject of this experiment is IKZF1. Kind of experiment: Nuclear proteome by mass spectrometry (DIA) after cell treatment with thalidomide. In kind it is cell-based. The conditions noted are these: cells treated with thalidomide; FIG. 14. The protocol:
First, cells of interest are isolated. This is done by harvesting, homogenizing, washing, and then pelleting the cells of interest. The pellet is then resuspended in a buffer A not comprising polycations (e.g., no spermidine or spermine). NP40 detergent solution is then added to isolate nuclei and cells are spun and are pelleted. Optionally, prior to salt extraction, the pellet is treated with MNase at 37° C. for 5 minutes and is quenched with EDTA. The pellet is resuspended in buffer A and […] NaCl, and then is incubated at 4° C. for 30 minutes. The insoluble chromatin is pelleted for later analysis. The supernatant is used for further analysis.
400 ul of 01.% PPS is added to the nuclear pellet of EXAMPLE 1, which is then sonicated at a setting output of 5 for 30 seconds and a protein concentration is determined using A280 reading. The sample is then boiled at 99 C for 5 minutes, is allowed to cool at room temperature, and is then briefly spun down. DTT is added for a final concentration of 5 mM, and is incubated at 60° C. for 30 minutes. Next, IAA is added for a final concentration of 15 mM, and is incubated at room temperature in the dark for 30 minutes. […]
Data were acquired on a ThermoFisher QExactive-HF instrument operating in DIA mode. […] Peptide quantification was performed using EncyclopeDIA software. […]

Molecules are shown by their SMILES.

Take `O=C1CCC(N2C(=O)c3ccccc3C2=O)C(=O)N1` (stereo not shown) [thalidomide]: the “pharmacological degradation of IKZF1 after cell treatment” value is on record as “degraded”.

Source of the values: US12276667B2, “Isolation and characterization of the nuclear proteome” (Altius Institute for Biomedical Sciences, priority 2018, dated 2025).
